According to PubChem BioAssay (NCI):
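Results reflect a 48-hour exposure of cells in 96-well plates to compound at five concentrations. GI50 = concentration required for 50% inhibition of growth. TGI denotes the concentration required for complete inhibition of growth.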

Columns and labels:
Assay in all cases: inhibition of tumour cell growth, NCI panel, 48 h
786-0 renal = tested on: 786-0 renal
A498 renal = tested on: A498 renal
A549 NSCLC = tested on: A549 NSCLC
ACHN renal = tested on: ACHN renal
BT-549 breast = tested on: BT-549 breast
CAKI-1 renal = tested on: CAKI-1 renal
CCRF-CEM leukemia = tested on: CCRF-CEM leukemia
COLO 205 colon = tested on: COLO 205 colon
DU-145 prostate = tested on: DU-145 prostate
EKVX NSCLC = tested on: EKVX NSCLC
HCC-2998 colon = tested on: HCC-2998 colon
HCT-116 colon = tested on: HCT-116 colon
HCT-15 colon = tested on: HCT-15 colon
HL-60(TB) leukemia = tested on: HL-60(TB) leukemia
HOP-62 NSCLC = tested on: HOP-62 NSCLC
HOP-92 NSCLC = tested on: HOP-92 NSCLC
HS 578T breast = tested on: HS 578T breast
HT29 colon = tested on: HT29 colon
IGROV1 ovarian = tested on: IGROV1 ovarian
K-562 leukemia = tested on: K-562 leukemia
KM12 colon = tested on: KM12 colon
LOX IMVI melanoma = tested on: LOX IMVI melanoma
M14 melanoma = tested on: M14 melanoma
MALME-3M melanoma = tested on: MALME-3M melanoma
MCF7 breast = tested on: MCF7 breast
MDA-MB-231 breast = tested on: MDA-MB-231 breast
MDA-MB-435 = tested on: MDA-MB-435
MOLT-4 leukemia = tested on: MOLT-4 leukemia
NCI-H226 lung = tested on: NCI-H226 lung
NCI-H23 lung = tested on: NCI-H23 lung
NCI-H460 lung = tested on: NCI-H460 lung
NCI-H522 lung = tested on: NCI-H522 lung
NCI/ADR-RES ovarian = tested on: NCI/ADR-RES ovarian
OVCAR-3 ovarian = tested on: OVCAR-3 ovarian
OVCAR-4 ovarian = tested on: OVCAR-4 ovarian
OVCAR-5 ovarian = tested on: OVCAR-5 ovarian
OVCAR-8 ovarian = tested on: OVCAR-8 ovarian
PC-3 prostate = tested on: PC-3 prostate
RPMI-8226 leukemia = tested on: RPMI-8226 leukemia
RXF 393 renal = tested on: RXF 393 renal
SF-268 CNS = tested on: SF-268 CNS
SF-295 CNS = tested on: SF-295 CNS
SF-539 CNS = tested on: SF-539 CNS
SK-MEL-2 melanoma = tested on: SK-MEL-2 melanoma
SK-MEL-28 melanoma = tested on: SK-MEL-28 melanoma
SK-MEL-5 melanoma = tested on: SK-MEL-5 melanoma
SK-OV-3 ovarian = tested on: SK-OV-3 ovarian
SN12C renal = tested on: SN12C renal
SNB-19 CNS = tested on: SNB-19 CNS
SNB-75 CNS = tested on: SNB-75 CNS
SR leukemia = tested on: SR leukemia
SW-620 colon = tested on: SW-620 colon
T-47D breast = tested on: T-47D breast
TK-10 renal = tested on: TK-10 renal
U251 CNS = tested on: U251 CNS
UACC-257 melanoma = tested on: UACC-257 melanoma
UACC-62 melanoma = tested on: UACC-62 melanoma
UO-31 renal = tested on: UO-31 renal

Molecule `COc1ccc(/C(=N\NC(N)=S)c2ccc(Cl)cc2)cc1OC` has a GI50 (786-0 renal) of 7.54 µM, a TGI (786-0 renal) of 23.1 µM and a GI50 (A498 renal) of 5.93 µM. For the same molecule, the TGI (A498 renal) was 13.4 µM, the GI50 (A549 NSCLC) was 5.94 µM and the TGI (A549 NSCLC) was 32.3 µM. For the same molecule, the GI50 (ACHN renal) was 5.89 µM, the TGI (ACHN renal) was 29.2 µM and the GI50 (BT-549 breast) was 2.4 µM. It also gave a TGI (BT-549 breast) of 6.33 µM, a GI50 (CAKI-1 renal) of 3.28 µM and a TGI (CAKI-1 renal) of 17.1 µM. For the same molecule, the GI50 (CCRF-CEM leukemia) was 2.63 µM, the TGI (CCRF-CEM leukemia) was 16.6 µM and the GI50 (COLO 205 colon) was 3.37 µM. It also gave a TGI (COLO 205 colon) of 10.8 µM, a GI50 (DU-145 prostate) of 5.95 µM and a TGI (DU-145 prostate) of 22.5 µM. The GI50 (EKVX NSCLC) was 4.95 µM, the TGI (EKVX NSCLC) was 28.3 µM and the GI50 (HCC-2998 colon) was 4.36 µM. For the same molecule, the TGI (HCC-2998 colon) was 16.5 µM, the GI50 (HCT-116 colon) was 3.59 µM and the TGI (HCT-116 colon) was 15.6 µM. For the same molecule, the GI50 (HCT-15 colon) was 2.06 µM, the TGI (HCT-15 colon) was 15.6 µM and the GI50 (HL-60(TB) leukemia) was 1.77 µM. For the same molecule, the TGI (HL-60(TB) leukemia) was 8.05 µM, the GI50 (HOP-62 NSCLC) was 4.38 µM and the TGI (HOP-62 NSCLC) was 20.8 µM. It also gave a GI50 (HOP-92 NSCLC) of 4.67 µM, a TGI (HOP-92 NSCLC) of 17.4 µM and a GI50 (HS 578T breast) of 2.77 µM. The TGI (HS 578T breast) was 13.8 µM, the GI50 (HT29 colon) was 2.69 µM and the TGI (HT29 colon) was 9.48 µM. It also gave a GI50 (IGROV1 ovarian) of 4.11 µM, a TGI (IGROV1 ovarian) of 20.4 µM and a GI50 (K-562 leukemia) of 1.04 µM. The TGI (K-562 leukemia) was greater than 41.1 µM, the GI50 (KM12 colon) was 3.56 µM and the TGI (KM12 colon) was 19.4 µM. It also gave a GI50 (LOX IMVI melanoma) of 4.41 µM, a TGI (LOX IMVI melanoma) of 18.2 µM and a GI50 (M14 melanoma) of 2.93 µM. For the same molecule, the TGI (M14 melanoma) was 15.2 µM, the GI50 (MALME-3M melanoma) was 3.54 µM and the TGI (MALME-3M melanoma) was 19.2 µM. It also gave a GI50 (MCF7 breast) of 3.12 µM, a TGI (MCF7 breast) of 15.5 µM and a GI50 (MDA-MB-231 breast) of 4.48 µM. For the same molecule, the TGI (MDA-MB-231 breast) was 18.2 µM, the GI50 (MDA-MB-435) was 0.638 µM and the TGI (MDA-MB-435) was 2.84 µM. For the same molecule, the GI50 (MOLT-4 leukemia) was 4.91 µM, the TGI (MOLT-4 leukemia) was 29.2 µM and the GI50 (NCI-H226 lung) was 2.72 µM. The TGI (NCI-H226 lung) was 17.6 µM, the GI50 (NCI-H23 lung) was 4.7 µM and the TGI (NCI-H23 lung) was 18.2 µM. For the same molecule, the GI50 (NCI-H460 lung) was 3.58 µM, the TGI (NCI-H460 lung) was 13 µM and the GI50 (NCI-H522 lung) was 1.37 µM. For the same molecule, the TGI (NCI-H522 lung) was 4.62 µM, the GI50 (NCI/ADR-RES ovarian) was 2.34 µM and the TGI (NCI/ADR-RES ovarian) was 9.89 µM. The GI50 (OVCAR-3 ovarian) was 3.47 µM, the TGI (OVCAR-3 ovarian) was 14.9 µM and the GI50 (OVCAR-4 ovarian) was 7.01 µM. For the same molecule, the TGI (OVCAR-4 ovarian) was 40.7 µM, the GI50 (OVCAR-5 ovarian) was 5.44 µM and the TGI (OVCAR-5 ovarian) was 21.3 µM. The GI50 (OVCAR-8 ovarian) was 4.41 µM, the TGI (OVCAR-8 ovarian) was 20.5 µM and the GI50 (PC-3 prostate) was 3.76 µM. It also gave a TGI (PC-3 prostate) of 20.1 µM, a GI50 (RPMI-8226 leukemia) of 3.4 µM and a TGI (RPMI-8226 leukemia) of 16.4 µM. For the same molecule, the GI50 (RXF 393 renal) was 1.94 µM, the TGI (RXF 393 renal) was 7.26 µM and the GI50 (SF-268 CNS) was 8.87 µM. It also gave a TGI (SF-268 CNS) of 30.3 µM, a GI50 (SF-295 CNS) of 3.56 µM and a TGI (SF-295 CNS) of 14.2 µM. It also gave a GI50 (SF-539 CNS) of 2.63 µM, a TGI (SF-539 CNS) of 9.11 µM and a GI50 (SK-MEL-2 melanoma) of 1.67 µM. For the same molecule, the TGI (SK-MEL-2 melanoma) was 4.67 µM, the GI50 (SK-MEL-28 melanoma) was 6.95 µM and the TGI (SK-MEL-28 melanoma) was 21.7 µM. The GI50 (SK-MEL-5 melanoma) was 4.14 µM, the TGI (SK-MEL-5 melanoma) was 14 µM and the GI50 (SK-OV-3 ovarian) was 3.38 µM. The TGI (SK-OV-3 ovarian) was 16.1 µM, the GI50 (SN12C renal) was 4.63 µM and the TGI (SN12C renal) was 18.5 µM. The GI50 (SNB-19 CNS) was 5.22 µM, the TGI (SNB-19 CNS) was 21.5 µM and the GI50 (SNB-75 CNS) was 1.69 µM. For the same molecule, the TGI (SNB-75 CNS) was 6.73 µM, the GI50 (SR leukemia) was 2.43 µM and the TGI (SR leukemia) was greater than 39.7 µM. For the same molecule, the GI50 (SW-620 colon) was 3.65 µM, the TGI (SW-620 colon) was 17.5 µM and the GI50 (T-47D breast) was 3.16 µM. The TGI (T-47D breast) was 25 µM, the GI50 (TK-10 renal) was 11.1 µM and the TGI (TK-10 renal) was 31.6 µM. The GI50 (U251 CNS) was 3.71 µM, the TGI (U251 CNS) was 15.4 µM and the GI50 (UACC-257 melanoma) was 8.13 µM. For the same molecule, the TGI (UACC-257 melanoma) was 26.2 µM, the GI50 (UACC-62 melanoma) was 3.7 µM and the TGI (UACC-62 melanoma) was 19.6 µM. It also gave a GI50 (UO-31 renal) of 3.34 µM and a TGI (UO-31 renal) of 16.6 µM.
